Measurements as given in patent US20150017185A1, “METHOD TO IMPROVE THE IMMUNE FUNCTION OF T CELLS” (UCL BUSINESS PLC, priority 2011, published 2015).

Tests used:
[1] = test system: CD8+ CD45RA/CD27 T cell subsets; experiment: Proliferation assay (Ki67 staining) with PDL-1/2 blockade and p38 inhibitor; format: cell-based, human; conditions: CD8+ T cells at all four stages of differentiation (N, CM, EM, EMRA); 4 days anti-CD3 and irradiated autologous APCs; 10 μg/ml PDL1/2 blocking antibodies, 500 nM BIRB796; 4 donors
Method: It was investigated whether either PD-1 or p38 signalling pathways contributed to the decreased proliferative activity of EMRA CD8^+ T cells. The four CD45RA/CD27 defined T cell subsets were isolated and then stimulated with anti-CD3 antibody and irradiated autologous APCs in the presence of either 10 μg/ml PDL1/2 blocking antibodies, 500 nM BIRB796 or both inhibitors together. Proliferative activity was determined by staining with Ki67 antibody. Representative histograms for the EMRA subset with and without the inhibitors is shown in FIG. 4A, while pooled results from all four subsets from 4 separate donors is shown in FIG. 4B.
PBMCs or sorted CD8^+ T cells were stimulated with 0.5 μg/ml plate coated anti-CD3 (OKT3) for 4 days and proliferation was assessed by staining for the nuclear antigen Ki67 that is expressed by cells at all stages of the cell cycle.
(§1) Signalling through PD-1 on purified total CD8^+ and CD27/CD45RA defined CD8^+ subsets was blocked by adding 10 μg/ml each of anti-PD-L1 (29E.2A3.C6) and anti-PD-L2 (24F.10C12.G12), or 10 μg/ml each of IgG2a (Mg2a-53) or IgG2b (MPC-11) isotype control antibodies (Abcam) at the start of the 4 day stimulation period with anti-CD3 (purified OKT3, 0.5 μg/ml) and irradiated APCs. The p38 inhibitor BIRB796 was added to the 4 day cultures at a final concentration of 500 nM and 0.1% DMSO was used as control.

[2] = test system: CD8+ CD45RA/CD27 T cell subsets; experiment: Telomerase activity (TRAP assay) with PDL-1/2 blockade and p38 inhibitor; format: cell-based, human; conditions: 4 days anti-CD3 and irradiated autologous APCs
Excerpt: It was next investigated whether p38 or PD-1 signalling were involved in the decreased telomerase activity in EMRA CD8^+ T cells. […] Once again, CD8^+ T cell subsets were stimulated with anti-CD3 and irradiated autologous APCs in the presence of both inhibitors separately or together as in FIG. 4. […] The blockade of PD-1 signalling had no effect on telomerase activity in any of the subsets.
Purified CD8^+ T cell populations (2×10^5 cells) were snap-frozen after stimulation for 4 days with 0.5 μg/ml plate coated anti-CD3 (OKT3) and irradiated APCs. Telomerase activity was determined using the telomeric repeat amplification protocol (TRAP; TRAPeze telomerase detection kit; Chemicon) according to the protocol provided by the manufacturer. The absolute numbers of CD8^+ T cells were enumerated using trypan blue (Sigma). The TRAP assay was performed with samples adjusted to 500 Ki67^+ T cells per reaction to control for the different extents of proliferation in the different subsets after activation.
as §1, with “The p38 inhibitor BIRB796 was added to the 4 day cultures at a final concentration of 500 nM and 0.1% DMSO was used as control.” left out

## Cc1ccc(-n2nc(C(C)(C)C)cc2NC(=O)Nc2ccc(OCCN3CCOCC3)c3ccccc23)cc1 [BIRB796]
[1]
  proliferative activity (Ki67 staining): increased proliferative activity
[2]; CD45RA+CD27− (EMRA) CD8+ population, 500 nM BIRB796, 10 μg/ml anti-PDL1/2, p<0.05, 4 donors
  telomerase activity: significant increase
[2]; N, CM and EM CD8+ T cells, p38 signalling blocked (500 nM BIRB796), results not significant
  telomerase activity: trend towards increased telomerase activity
